For 24 compounds, IC50 results are on record in US20250170141A1, “MRGPRX2 MODULATORS AND RELATED METHODS OF TREATMENT” (Escient Pharmaceuticals, Inc., priority 2023, published 2025).

Where only a bound is given, the exact number is not on record here.

In the experiment the target is T1, human MRGPRX2 (Homo sapiens, UniProt Q96LB1).
T1 construct: expressed in transfected cells; host or cells: CHO cells, stably transfected (G418 and Hygromycin B selection)
T1 sequence (Q96LB1 1-330): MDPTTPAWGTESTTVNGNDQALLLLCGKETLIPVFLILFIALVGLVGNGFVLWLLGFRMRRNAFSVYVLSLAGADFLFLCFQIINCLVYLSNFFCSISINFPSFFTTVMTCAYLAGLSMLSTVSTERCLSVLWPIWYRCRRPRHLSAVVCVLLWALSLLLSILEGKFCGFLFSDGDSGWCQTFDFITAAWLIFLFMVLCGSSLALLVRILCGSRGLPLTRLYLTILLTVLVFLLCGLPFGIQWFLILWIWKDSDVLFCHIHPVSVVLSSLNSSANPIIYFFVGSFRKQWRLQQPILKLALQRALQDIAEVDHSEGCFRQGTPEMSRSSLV
In words: MRGPRX2 activity: IP-One Gq HTRF assay in CHO cells, antagonism versus 0.3 uM Cortistatin-14. It counts as cell-based. To be noted: versus 0.3 uM Cortistatin-14 agonist, CHO cells expressing human MRGPRX2, read-out: MRGPRX2 Antagonist Activity. An outline of the steps:
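Antagonist IC50 was derived from the HTRF IP-1 signal after co-addition of compounds (10 points, top 30 uM, 3-fold steps) and 0.3 μM Cortistatin-14 agonist to human MRGPRX2-expressing CHO cells. Assay buffer contained 50 mM LiCl, pH 8; plates sat 1 h at 37 °C, then 1 h at room temperature.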

For `N#Cc1ccc2c(c1Oc1ccccc1Cl)NC(NCc1ncccc1F)=NS2(=O)=O` [Compound 3-2, 5-(2-chlorophenoxy)-3-(((3-fluoropyridin-2-yl)methyl)amino)-4H-benzo[e][1,2,4]thiadiazine-6-carbonitrile 1,1-dioxide], the IC50 is < 100 nM.

Consider `O=S1(=O)N=C(NCc2ncccc2F)Nc2c1ccc(F)c2Cc1ccccc1Cl` [Compound 4-1, 5-(2-chlorobenzyl)-6-fluoro-3-(((3-fluoropyridin-2-yl)methyl)amino)-4H-benzo[e][1,2,4]thiadiazine 1,1-dioxide], for which the IC50 is < 100 nM.

As to `O=S1(=O)N=C(NCc2cccc(F)n2)Nc2c1ccc(F)c2Cc1ccccc1Cl` [Compound 4-2, 5-(2-chlorobenzyl)-6-fluoro-3-(((6-fluoropyridin-2-yl)methyl)amino)-4H-benzo[e][1,2,4]thiadiazine 1,1-dioxide], the IC50 fell in the range of 100 to 500 nM.

For `O=S1(=O)N=C(NCc2cccc(Cl)c2F)Nc2c1ccc(F)c2Cc1ccccc1Cl` [Compound 4-3, 3-((3-chloro-2-fluorobenzyl)amino)-5-(2-chlorobenzyl)-6-fluoro-4H-benzo[e][1,2,4]thiadiazine 1,1-dioxide], the IC50 was < 100 nM.

With `O=S1(=O)N=C(NCc2ccccc2F)Nc2c1ccc(F)c2Cc1ccccc1Cl` [Compound 4-4, 5-(2-chlorobenzyl)-6-fluoro-3-((2-fluorobenzyl)amino)-4H-benzo[e][1,2,4]thiadiazine 1,1-dioxide], the IC50 lay within 100 to 500 nM.

As for `O=S1(=O)N=C(NCc2ncccc2F)Nc2c1cc(F)c(F)c2Cc1ccccc1Cl` [Compound 4-5, 5-(2-chlorobenzyl)-6,7-difluoro-3-(((3-fluoropyridin-2-yl)methyl)amino)-4H-benzo[e][1,2,4]thiadiazine 1,1-dioxide], the IC50 lay in the range of 100 to 500 nM.

Consider `O=S1(=O)N=C(NCc2ccccc2F)Nc2c1cc(F)c(F)c2Cc1ccccc1Cl` [Compound 4-6, 5-(2-chlorobenzyl)-6,7-difluoro-3-((2-fluorobenzyl)amino)-4H-benzo[e][1,2,4]thiadiazine 1,1-dioxide], for which the IC50 lay in the range of 100 to 500 nM.

On to `O=S1(=O)N=C(NCc2cccnc2F)Nc2c1cc(F)c(F)c2Cc1ccccc1Cl` [Compound 4-7, 5-(2-chlorobenzyl)-6,7-difluoro-3-(((2-fluoropyridin-3-yl)methyl)amino)-4H-benzo[e][1,2,4]thiadiazine 1,1-dioxide], for which the IC50 fell in the range of 1000 to 2500 nM.

For the compound `O=S1(=O)N=C(NCc2ccc(F)cc2F)Nc2c1cc(F)c(F)c2Cc1ccccc1Cl` [Compound 4-8, 5-(2-chlorobenzyl)-3-((2,4-difluorobenzyl)amino)-6,7-difluoro-4H-benzo[e][1,2,4]thiadiazine 1,1-dioxide], the IC50 lay within 100 to 500 nM.

For `COc1ccccc1CNC1=NS(=O)(=O)c2cc(F)c(F)c(Cc3ccccc3Cl)c2N1` [Compound 4-9, 5-(2-chlorobenzyl)-6,7-difluoro-3-((2-methoxybenzyl)amino)-4H-benzo[e][1,2,4]thiadiazine 1,1-dioxide], the IC50 is 501 to 1000 nM.

On to `O=S1(=O)N=C(NCc2cc(F)ccc2F)Nc2c1cc(F)c(F)c2Cc1ccccc1Cl` [Compound 4-10, 5-(2-chlorobenzyl)-3-((2,5-difluorobenzyl)amino)-6,7-difluoro-4H-benzo[e][1,2,4]thiadiazine 1,1-dioxide], for which the IC50 fell in the range of 100 to 500 nM.

As to `O=S1(=O)N=C(NCc2cccc(F)n2)Nc2c1cc(F)c(F)c2Cc1ccccc1Cl` [Compound 4-11, 5-(2-chlorobenzyl)-6,7-difluoro-3-(((6-fluoropyridin-2-yl)methyl)amino)-4H-benzo[e][1,2,4]thiadiazine 1,1-dioxide], the IC50 was in the range of 100 to 500 nM.

Consider `O=S1(=O)N=C(NCc2cccc(F)c2)Nc2c1cc(F)c(F)c2Cc1ccccc1Cl` [Compound 4-12, 5-(2-chlorobenzyl)-6,7-difluoro-3-((3-fluorobenzyl)amino)-4H-benzo[e][1,2,4]thiadiazine 1,1-dioxide], for which the IC50 fell in the range of 100 to 500 nM.

In the case of `O=S1(=O)N=C(NCc2ccc(F)cc2)Nc2c1cc(F)c(F)c2Cc1ccccc1Cl` [Compound 4-13, 5-(2-chlorobenzyl)-6,7-difluoro-3-((4-fluorobenzyl)amino)-4H-benzo[e][1,2,4]thiadiazine 1,1-dioxide], the IC50 was 501 to 1000 nM.

With `O=S1(=O)N=C(NCc2cccc(Cl)c2F)Nc2c1cc(F)c(F)c2Cc1ccccc1Cl` [Compound 4-14, 3-((3-chloro-2-fluorobenzyl)amino)-5-(2-chlorobenzyl)-6,7-difluoro-4H-benzo[e][1,2,4]thiadiazine 1,1-dioxide], the IC50 was in the range of 100 to 500 nM.

`CC(C)c1ccc(NC2=NS(=O)(=O)c3cc(F)c(F)c(Cc4ccccc4Cl)c3N2)cc1` [Compound 4-15, 5-(2-chlorobenzyl)-6,7-difluoro-3-((4-isopropylphenyl)amino)-4H-benzo[e][1,2,4]thiadiazine 1,1-dioxide]: the IC50 is > 2500 nM.

Regarding `O=S1(=O)N=C(NCc2ccccc2C(F)(F)F)Nc2c1cc(F)c(F)c2Cc1ccccc1Cl` [Compound 4-16, 5-(2-chlorobenzyl)-6,7-difluoro-3-((2-(trifluoromethyl)benzyl)amino)-4H-benzo[e][1,2,4]thiadiazine 1,1-dioxide], the IC50 fell in the range of 100 to 500 nM.

As for `O=S1(=O)N=C(NCc2cnccc2C(F)(F)F)Nc2c1cc(F)c(F)c2Cc1ccccc1Cl` [Compound 4-17, 5-(2-chlorobenzyl)-6,7-difluoro-3-(((4-(trifluoromethyl)pyridin-3-yl)methyl)amino)-4H-benzo[e][1,2,4]thiadiazine 1,1-dioxide], the IC50 was 100 to 500 nM.

As to `O=S1(=O)N=C(NCc2ncccc2O)Nc2c1cc(F)c(F)c2Cc1ccccc1Cl` [Compound 4-18, 5-(2-chlorobenzyl)-6,7-difluoro-3-(((3-hydroxypyridin-2-yl)methyl)amino)-4H-benzo[e][1,2,4]thiadiazine 1,1-dioxide], the IC50 is > 2500 nM.

`O=S1(=O)N=C(Nc2ccc(F)cc2)Nc2c1cc(F)c(F)c2Cc1ccccc1Cl` [Compound 4-19, 5-(2-chlorobenzyl)-6,7-difluoro-3-((4-fluorophenyl)amino)-4H-benzo[e][1,2,4]thiadiazine 1,1-dioxide]: the IC50 was in the range of 501 to 1000 nM.

On to `O=S1(=O)N=C(NCc2cccc3ccccc23)Nc2c1cc(F)c(F)c2Cc1ccccc1Cl` [Compound 4-20, 5-(2-chlorobenzyl)-6,7-difluoro-3-((naphthalen-1-ylmethyl)amino)-4H-benzo[e][1,2,4]thiadiazine 1,1-dioxide], for which the IC50 was 501 to 1000 nM.

In the case of `Cc1cccc(C)c1Cc1c(F)ccc2c1NC(NCc1ncccc1F)=NS2(=O)=O` [Compound 5-1, 5-(2,6-dimethylbenzyl)-6-fluoro-3-(((3-fluoropyridin-2-yl)methyl)amino)-4H-benzo[e][1,2,4]thiadiazine 1,1-dioxide], the IC50 was < 100 nM.

Regarding `O=S1(=O)N=C(NCc2ncccc2F)Nc2c1ccc(F)c2CCc1ccccc1` [Compound 6-1, 6-fluoro-3-(((3-fluoropyridin-2-yl)methyl)amino)-5-phenethyl-4H-benzo[e][1,2,4]thiadiazine 1,1-dioxide], the IC50 was 100 to 500 nM.

Turning to `O=S1(=O)N=C(NCc2ccccc2F)Nc2c(Cc3ccccc3Cl)cccc21` [Compound 6-2, 5-(2-chlorobenzyl)-3-((2-fluorobenzyl)amino)-4H-benzo[e][1,2,4]thiadiazine 1,1-dioxide], the IC50 is < 100 nM.
